Here are results for six compounds from article PMC7821381, “Multi-Targeted Anticancer Activity of Imidazolate Phosphane Gold(I) Compounds by Inhibition of DHFR and TrxR in Breast Cancer Cells” (Frontiers in Chemistry, 2021).

The test system of series [1] is SKBR3 cells. More on the design: method as in Serova et al., 2006. Particulars: SKBR3, 24 h; ref Serova et al., 2006; cited from earlier work.
Series [2] concerns A17 cells. Further details: method as in Gambini et al., 2018. To be noted: A17, 24 h; ref Gambini et al., 2018; cited from earlier work.
The subject of series [3] is MDA-MB231 cells. More on the design: method as in Gambini et al., 2018. Particulars: MDA-MB231, 48 h; ref Gambini et al., 2018; cited from earlier work.
The subject of series [4] is SKBR3 cells. Kind of series: MTT cell viability assay on SKBR3 cells. It counts as cell-based, human. The source says:
(§1) Human MDA-MB-231 (ER–/PR–/HER2–) and SK-BR-3 (ER–/PR–/HER2+) cells were obtained from American Type Culture Collection (Rockville, MD) and cultured in Dulbecco's Modified Essential Medium (DMEM, Gibco, Life Technologies) supplemented with 10% fetal bovine serum (FBS, Gibco, Life Technologies) and 1% penicillin–streptomycin (Gibco, Life Technologies). A17 cells were established from a spontaneous lobular carcinoma that arose in an FVB/neuT mouse (Galiè et al., [2005]), and maintained in DMEM plus 20% FBS and 1% penicillin-streptomycin. Cells were cultured at 37°C under humidified atmosphere with 5% CO2.
(§2) Stock solutions were prepared for each gold(I) compound (50 mM) using dimethyl sulfoxide (DMSO) (Sigma-Aldrich) as solvent. The effects of gold(I) compounds on SKBR3, A17 and MDA-MB231 cells viability were evaluated by seeding, respectively, 10, ^*10^3, 2.5 ^*10^3, 7, ^*10^3 cells/well in 96 wells plates in complete medium (DMEM supplemented with FBS) and compared to those of cisplatin. The day after, fresh medium containing vehicle alone (DMSO, 1 % v/v final concentration) or increasing concentrations of each compound ranging from 0.1 to 100 μM was added. Cell viability was determined using a MTT [3-(4,5-dimethylthiazol-2-yl)-2,5-diphenyl-2H-tetrazolium bromide Sigma Aldrich, St. Louis, MO] assay, which is based on the conversion of MTT to formazan crystals by mitochondrial enzymes, after 24, 48, and 72 h. The formazan deposits were dissolved in DMSO and the absorbance of each well was measured at 540 nm in Multiskan Ascent 96/384 Plate Reader. Each drug concentration was evaluated with 8 replicates and each experiment was repeated three times. At the end of the experiments a dose–response curve was plotted, and the IC50 concentrations were determined. Statistical analysis was performed using One-Way ANOVA analysis of variance followed by Dunnett's Multiple Comparison Test. Quantitative data are presented as means ± SEM. Differences were considered significant at ^*P ≤ 0.0332; ^**P ≤ 0.0021; ^***P ≤ 0.0002; ^****P ≤ 0.0001.
(§3) IC50 values were calculated for each of the cell lines tested, by fitting the concentration-effect curves data obtained in the three experiments with the sigmoid-Emax model using nonlinear regression, weighted by the reciprocal of the square of the predicted effect.
(Formazan colour is commonly taken as a measure of viable cells.)

A further series relates to DNA. More on the design: method as in Nafisi et al., 2007. Particulars: ref Nafisi et al., 2007; cited from earlier work.
The subject of series [5] is A17 cells. Kind of series: MTT cell viability assay on A17 cells. To be noted: A17, 24 h, ± S. D. It counts as cell-based, murine.
Text: as §1
as §2, with “Statistical analysis was performed using One-Way ANOVA analysis of variance followed by Dunnett's Multiple Comparison Test.” left out, “Differences were considered significant at ^*P ≤ 0.0332; ^**P ≤ 0.0021; ^***P ≤ 0.0002; ^****P ≤ 0.0001.” left out
as §3

Series [6] is described as follows: Stability in physiological condition. It counts as physicochemical.
For series [7], the system named is MDA-MB231 cells. Kind of series: MTT cell viability assay on MDA-MB231 cells. The format is cell-based, human. Particulars: MDA-MB231, 24 h, ± S. D.
Text: as §1
as §2, with “Statistical analysis was performed using One-Way ANOVA analysis of variance followed by Dunnett's Multiple Comparison Test.” left out, “Differences were considered significant at ^*P ≤ 0.0332; ^**P ≤ 0.0021; ^***P ≤ 0.0002; ^****P ≤ 0.0001.” left out
as §3

Where two headings read alike, the source gives them in different places.

For `N.N.[Cl][Pt][Cl]` [Cisplatin], the concentration for half-maximal inhibition (IC50) (in general, the concentration that gives 50% inhibition) is 43 ± 7 µM in the series with SKBR3 cells [1], 15.9 ± 1.17 µM in the series with A17 cells [2] and 50.5 ± 2 µM in the series on MDA-MB231 cells [3].
`O=C(O)c1ccccc1[PH]([Au][Cl])(c1ccccc1)c1ccccc1` [Compound 1, 2-benzoic-diphenylphosphanegold chloride]: in the series with SKBR3 cells [4] (SKBR3 cells, 72 h (Figure 1S) and 48 h (Figure 2)), the “cytotoxic activity in MTT screening” value is on record as “did not show relevant cytotoxic activity”.
`CN(C)c1ccc2cc3ccc(N(C)C)cc3nc2c1` [acridine orange]: the “binding constant of classical intercalators to DNA” value (“binding constant” below) in the series with DNA is 26900 M⁻¹.
Consider `CC[n+]1c(-c2ccccc2)c2cc(N)ccc2c2ccc(N)cc21` [ethidium bromide], for which the “binding constant” value in the series on DNA is 65800 M⁻¹.
Consider `CN(C)c1ccc2nc3ccc(=[N+](C)C)cc-3sc2c1` [methylene blue], for which the “binding constant” value in the series on DNA is 21300 M⁻¹.
For the compound “(3,5-dintropyrazolyl-1H-gold(I)-(triphenylphosphane) [Compound 4]”, the IC50 in the series with A17 cells [5] is 11 ± 1 µM; in the series on MDA-MB231 cells [7], 12.8 ± 0.7 µM; in the series with SKBR3 cells [4] (SKBR3, 24 h, ± S. D.), 12.3 ± 1.1 µM. Moreover, the “stability in physiological condition” value in series [6] was “less stable in physiological condition”.
